Results reported in the supplement of paper PMC10307832.

Key:
Assay in all cases: relative viability (nuclei count vs DMSO), 5 days (fraction); higher = more cells survive
Shikonin + Decitabine = compound: CC(C)=CC[C@@H](O)C1=CC(=O)c2c(O)ccc(O)c2C1=O [Shikonin] + Nc1ncn([C@H]2C[C@H](O)[C@@H](CO)O2)c(=O)n1 [Decitabine] (partner 2 µM)
In short: (§1)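 Lung cancer cell lines, seeded in 1536-well plates, were treated the following day by pin tool with a single drug or with five library-drug doses (not always all listed) in √10 steps on top of a fixed anchor-drug dose. Cells were fixed and nuclei stained in one step after 5 days, and nuclei were counted. Relative viability is the nuclei count for treated wells divided by that for vehicle wells, reported as medians of duplicate plates.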

[1] = compound: CC(C)N(CCCNC(=O)Nc1ccc(C(C)(C)C)cc1)C[C@H]1O[C@@H](n2ccc3c(N)ncnc32)[C@H](O)[C@@H]1O + CC1(C)CCC(c2ccc(Cl)cc2)=C(CN2CCN(c3ccc(C(=O)NS(=O)(=O)c4ccc(N[C@H](CCN5CCOCC5)CSc5ccccc5)c(S(=O)(=O)C(F)(F)F)c4)cc3)CC2)C1 [Navitoclax] (partner 0.5 µM)
In short: as §1

Shikonin + Trametinib = compound: CC(C)=CC[C@@H](O)C1=CC(=O)c2c(O)ccc(O)c2C1=O [Shikonin] + CC(=O)Nc1cccc(-n2c(=O)n(C3CC3)c(=O)c3c(Nc4ccc(I)cc4F)n(C)c(=O)c(C)c32)c1 [Trametinib] (partner 0.02 µM)
In short: as §1

Shikonin + Phenformin = compound: CC(C)=CC[C@@H](O)C1=CC(=O)c2c(O)ccc(O)c2C1=O [Shikonin] + N=C(N)NC(=N)NCCc1ccccc1 [Phenformin] (partner 250 µM)
In short: as §1

Row | Cell Line | relative viability (Shikonin + Decitabine; first compound 0.01 µM) | relative viability (Shikonin + Decitabine; first compound 0.1 µM) | relative viability (Shikonin + Decitabine; first compound 0.3162 µM) | relative viability (Shikonin + Decitabine; first compound 1 µM) | relative viability ([1]; first compound 0.08 µM) | relative viability ([1]; first compound 0.253 µM) | relative viability ([1]; first compound 0.8 µM) | relative viability ([1]; first compound 2.53 µM) | relative viability ([1]; first compound 8 µM) | relative viability (Shikonin + Trametinib; first compound 0.01 µM) | relative viability (Shikonin + Trametinib; first compound 0.1 µM) | relative viability (Shikonin + Trametinib; first compound 0.3162 µM) | relative viability (Shikonin + Trametinib; first compound 1 µM) | relative viability (Shikonin + Phenformin; first compound 0.01 µM) | relative viability (Shikonin + Phenformin; first compound 0.1 µM) | relative viability (Shikonin + Phenformin; first compound 0.3162 µM) | relative viability (Shikonin + Phenformin; first compound 1 µM)
1 | COR-L23 | 0.382 | 0.516 | 0.399 | 0.398 | 0.977 | 0.919 | 0.982 | 1.01 | 0.963 | 0.769 | 0.685 | 0.622 | 0.508 | 0.462 | 0.438 | 0.465 | 0.406
2 | COR-L 105 | 0.64 | 0.703 | 0.625 | 0.477 | 0.745 | 0.776 | 0.886 | 0.931 | 0.645 | 0.387 | 0.445 | 0.442 | 0.387 | 0.452 | 0.507 | 0.423 | 0.466
3 | LK-2 | 0.297 | 0.272 | 0.289 | 0.352 | 0.848 | 0.775 | 0.929 | 0.768 | 0.711 | 0.884 | 0.935 | 0.799 | 0.732 | 0.434 | 0.496 | 0.442 | 0.466
4 | 201T | 0.847 | 0.919 | 0.879 | 0.867 | 1.21 | 1.21 | 1.24 | 1.21 | 1.25 | 0.724 | 0.777 | 0.75 | 0.707 | 0.464 | 0.492 | 0.428 | 0.498
5 | HCC-44 | 0.953 | 0.928 | 1.1 | 0.979 | 0.952 | 1.1 | 0.915 | 0.961 | 1.03 | 1.08 | 1.01 | 0.996 | 1.08 | 0.212 | 0.162 | 0.226 | 0.267
6 | H3255 | 0.606 | 0.658 | 0.663 | 0.503 | 0.518 | 0.555 | 0.545 | 0.367 | 0.551 | 0.658 | 0.544 | 0.613 | 0.548 | 0.398 | 0.384 | 0.353 | 0.35
7 | NCI-H2085 | 0.528 | 0.515 | 0.57 | 0.532 | 1.11 | 1.11 | 1.18 | 1.33 | 1.15 | 0.601 | 0.502 | 0.574 | 0.513 | 0.738 | 0.847 | 0.785 | 0.637
8 | NCI-H2347 | 0.646 | 0.623 | 0.659 | 0.597 | 0.86 | 0.684 | 0.608 | 0.771 | 0.71 | 0.272 | 0.273 | 0.279 | 0.249 | 0.488 | 0.384 | 0.31 | 0.313
9 | NCI-H1944 | 0.464 | 0.446 | 0.443 | 0.435 | 0.982 | 0.983 | 0.988 | 1.05 | 1.02 | 0.382 | 0.431 | 0.415 | 0.469 | 0.198 | 0.189 | 0.209 | 0.205
